Measurements taken from the NIST ThermoML archive (doi:10.1016/j.tca.2014.12.020).
± gives the expanded uncertainty stated by the source.

Columns and labels:
[1] = molar heat capacity at constant pressure; settings: 101.33 kPa, Small sample (50 mg) DSC
[2] = Molar enthalpy of transition or fusion; settings: Crystal; DSC
[3] = Crystal; DTA

molar heat capacity at constant pressure ([1]; 298.15 K, Crystal) | molar heat capacity at constant pressure ([1]; 338.15 K, Liquid) | Molar enthalpy of transition or fusion [2] | molar heat capacity at constant pressure ([1]; 338.15 K, Crystal) | Normal melting temperature [3] | SMILES
517.75 ± 23 J/K/mol | 648.61 ± 28 J/K/mol | 12.4 ± 0.359 kcal/mol |  |  | CCCCCCCCCCCCCCCCCC(=O)O [octadecanoic acid]
444.11 ± 20 J/K/mol |  |  | 553.69 ± 23 J/K/mol |  | CCCCCCCCCCCCOS(=O)(=O)[O-].[Na+] [sodium dodecyl sulfate]
385.95 ± 16 J/K/mol | 509.27 ± 21 J/K/mol | 10.5 ± 0.263 kcal/mol |  | 53.00 ± 5 °C | CCCCCCCCCCCCCC(=O)O [tetradecanoic acid]
